# Data: patent publication US12180159B2, “Activators of the unfolded protein response” (The Board of Trustees of the University of Illinois, priority 2018, dated 2024)
# Tests used:
# Assay type in all cases: cell-based, human
# [1] = test system: partially BHPI-resistant T47D clones 1, 3, 8, and 11; assay: Growth of partially BHPI-resistant T47D clones (MTS); conditions: 100 nM and 1 μM, 4 days
# Protocol: (§1) ERα containing T47D human breast cancer cells able to survive in 1 μM BHPI were selected by clonal outgrowth. The effect of 100 nM and 1 μM BHPI and (−)-105 on growth of the (BHPI-sensitive) parental T47D cells and partially BHPI-resistant T47D clones 1, 3, 8, and 11 was evaluated. 4,000 cells/well were plated. Cell number was determined by MTS assay from a standard curve of absorbance versus cell number. […] Thus, in 4 days (−)-105 killed some, but not all, of the resistant cells.
# [2] = test system: TYS-Luc cells; assay: Long-term cell culture experiment, TYS-Luc cells (MTS); conditions: 2 weeks 1 μM, then 4 weeks without drug
# Protocol: To simulate the effect of several weeks of treatment of a tumor in a mouse xenograft, long-term cell culture experiments were performed. TYS-Luc cells (T47DERαY537S-Luc cells; ERαY537S is the most lethal ERα mutation seen in metastatic breast cancer) were plated at 4,000 cells/well in 96 well plates. […] After 2 weeks (medium change every 2 days) cell number was determined using MTS and a standard curve of absorbance versus cell number for TYS-Luc cells. Notes: (i) Bars denote the BHPI and (−)-105 arms of the experiment. No drug is present during regrow. […] This allows any surviving cells to regrow. After 4 weeks the cells were assayed using MTS. […] (Note: Visual inspection of the wells confirmed that there were no cells in the well treated for 2 weeks with active (−)-105.) To test whether the cells that regrew after BHPI treatment were resistant to BHPI they were re-treated for another cycle (BHPI Retreat) and shown to retain sensitivity to BHPI killing. (n=8 biological replicates±SEM.
# [3] = test system: (BHPI-sensitive) parental T47D cells; assay: Growth of parental T47D cells (MTS); conditions: 100 nM and 1 μM, 4 days
# Protocol: as §1
# [4] = test system: MDA-MB-231 cells; assay: Cell death of MDA-MB-231 cells (annexin V-FITC / PI flow cytometry); conditions: 24 hours
# Protocol: (§2) FIG. 36. Discovery of SERK-F6 (also known as, C(−)-105, (−)-105, (R)-105, (−)-1, or (R)-1), a compound that kills ERα-positive cancer cells. a, Chemical structures of BHPI and racemic compound 1 (i.e. (±)-1), and their cytotoxic activity on T47D breast cancer cells after 24-hour incubations with concentrations as indicated in nM. Cells were stained with annexin V-FITC and PI dyes prior to analysis via flow cytometry. […] Cells were incubated with SERK-F6 or positive control, Raptinal, for 24 hours and then stained with annexin V-FITC and PI dyes and analyzed via flow cytometry. Error bars represent S.E.M of 3 independent replicates. c, IC50 values of SERK-F6 after 24-hour incubation against a panel of cancer cell lines grouped by their reported ERα status. Cell viability was measured by Alamar blue fluorescence and set relative to a vehicle control and a quantitative dead control treated with Raptinal. Error bars represent S.E.M of 3 independent experiments. d, Crystal violet staining of T47D cells after 24-hour incubations with compounds and concentrations as indicated. […] Cell number was determined by MTS.
# Through a medicinal chemistry campaign, (±)-1 was discovered to show an unexpected cytotoxic phenotype (FIG. 36A). […] The dose dependent activity of SERK-F6 was determined against a panel of cancer cell lines (FIG. 36C and FIG. 37A) for ERα.
# [5] = test system: ERα cell lines; assay: 24-hour crystal violet assay and long-term cell culturing; conditions: 24-hour crystal violet assay and long-term culture
# Protocol: as §2, with “indicated. Image is representative of 2 independent experiments. e,f, Long-term cell culture experiment with T47D, TDG, and TYS cells.” for “indicated.”, “MTS. […]” for “MTS.”
# An important aspect for cytotoxic therapy is the ability to quantitatively kill a cell population. […]
smiles,measurement,setting,value
"O=C1Nc2c(C(F)(F)F)cccc2C1(c1ccc(O)cc1)c1ccc(OC(F)(F)F)cc1 (single isomer, unassigned; (-)) [(−)-105, 3-(4-hydroxyphenyl)-3-(4-(trifluoromethoxy)phenyl)-7-(trifluoromethyl)indolin-2-one]",growth of the BHPI-resistant clones,[1],completely blocked the growth of the resistant clones
same,regrowth of cells after treatment,[2],no regrowth
same,growth / killing of parental T47D cells,[3],killed all the T47D cells
same,effects in ERα negative MDA-MB-231 cells,[4],minimal effects
same,quantitative killing of ERα cell lines,[5],quantitatively kills
